Experimental data reported in PMC7696216, “Bi-Functional Alginate Oligosaccharide–Polymyxin Conjugates for Improved Treatment of Multidrug-Resistant Gram-Negative Bacterial Infections” (Pharmaceutics, 2020).
Read-outs that look alike come from different tables or passages of the source. Positions of bridges follow the written chain, without caps; N, C: chain ends. Non-standard residues stand in square brackets, D forms with d. Residues, ends and D or L forms follow the SMILES beside them. *: point of attachment. X1 = CC[C@H](C)CCCCC(=O)*; Dab = NCC[C@H](N)C(=O)O

Legend:
A. baumannii MDR ACB = format: cell-based, Acinetobacter baumannii; conditions: for MIC: resazurin read-out
Experimental: (§1) The minimum inhibitory concentration (MIC) of colistin (as sulphate salt) and polymyxin B and their conjugates was determined using the broth microdilution method in MH broth in accordance with standard guidelines. Test organisms were suspended in MH broth (100 µL, 5 × 10^5 colony forming units (CFU)/mL) and incubated in 96-well microtitre plates in serial two-fold dilutions of the test compounds. […] Results were expressed as mode (n = 3). […] Selective activities of the polymyxins and OligoG–polymyxin conjugates were calculated as follows:Selectivity index (SI) = IC50 (μg/mL)/MIC (μg/mL).
(§2) To account for turbidity caused by mucin, resazurin dye solution (30 µL, 0.01% w/v in dH2O) was added to each well and incubated for a further 3 h at 37 °C. Colour changes were observed and recorded.

P. aeruginosa MDR 301 = format: cell-based, Pseudomonas aeruginosa
Experimental: as §1
(§3) In addition, alginate oligomer–colistin conjugates (3 mg/mL) were incubated in PBS at pH 7 containing bacterial alginate lyase (1 and 10 U/mL) at 37 °C for 24 h, before preparing microtitre plates as described above.
(§4) To study the antimicrobial efficacy of test compounds under more clinically relevant conditions, the MIC protocol was performed using AS medium instead of MH broth. The plates were incubated with resazurin as described above.

E. coli PN21 = experiment: MIC, broth microdilution; format: cell-based, Escherichia coli; conditions: SI = IC50 (µg/mL, HK-2)/MIC (µg/mL)
Experimental: as §1

E. coli IR57 = format: cell-based, Escherichia coli
Experimental: as §1, §2, §4

K. pneumoniae KP05 506 = format: cell-based, Klebsiella pneumoniae
Experimental: as §1, §3, §4

K. pneumoniae IR25 = format: cell-based, Klebsiella pneumoniae; conditions: for MIC: resazurin read-out
Experimental: as §1, §2

[1] = test system: range of Gram-negative bacterial pathogens; experiment: MIC and selectivity index across the panel of isolates; format: cell-based; conditions: mean SI over the isolates of Table S4
Experimental: as §1

E. coli AIM-1 = experiment: MIC, broth microdilution; format: cell-based, Escherichia coli; conditions: broth microdilution, MH broth, 5 × 10^5 CFU/mL, 16–20 h, mode (n = 3)
Experimental: as §1, §3

P. aeruginosa R22 = format: cell-based, Pseudomonas aeruginosa; conditions: for MIC: resazurin read-out
Experimental: as §1, §2

E. coli NCTC 10418 = format: cell-based, Escherichia coli; conditions: SI = IC50 (µg/mL, HK-2)/MIC (µg/mL)
Experimental: as §1

P. aeruginosa NCTC 10662 = format: cell-based, Pseudomonas aeruginosa; conditions: SI = IC50 (µg/mL, HK-2)/MIC (µg/mL)
Experimental: as §1

[2] = cited from earlier work
Experimental: In a clinical setting, binding of colistin to sputum biomolecules (e.g., mucin) in the airways could negatively impact antibiotic effectiveness and availability. […] A four-fold increase in the MIC of colistin was also reported when the assay was conducted in AS medium instead of MH broth, thought to be caused by bacterial growth disruption, structural modifications of lipopolysaccharides or direct colistin–mucin interactions. Alt ...

MTT cytotoxicity assay = format: cell-based; conditions: human, HK-2 cells, 72 h incubation, 0–1 mg/mL polymyxin base, ±SEM (n = 18), read-out: Half maximal inhibitory concentration (IC50), cytotoxicity
Experimental: A 3-(4,5-dimethylthiazol-2-yl)-2,5-diphenyltetrazolium bromide (MTT) assay was used to measure cell viability and proliferation of HK-2 cells. Cells were seeded into sterile 96-well microtitre plates at 1 × 10^5 cells/mL (100 µL/well) and allowed to adhere for 24 h at 37 °C. The following day, the old medium was replaced with test compounds (0–1 mg/mL polymyxin base) dissolved in filter-sterilised K-SFM. After 67 h incubation at 37 °C, filter-sterilised MTT solution (20 µL of a 5 mg/mL solution in PBS) was added to each well and incubated for a further 5 h at 37 °C. Finally, the medium was carefully removed, and the formazan crystals were solubilised in DMSO (100 µL) for 30 min. Absorbance was measured at 550 nm using a Fluostar Omega microplate reader. […] Data are expressed as mean ± SEM (n = 18).

P. aeruginosa NH57388A = experiment: MIC, broth microdilution; format: cell-based, Pseudomonas aeruginosa
Experimental: as §1, §4

A. baumannii 7789 = format: cell-based, Acinetobacter baumannii
Experimental: as §1, §3, §4

E. coli 5702 = experiment: MIC, broth microdilution; format: cell-based, Escherichia coli
Experimental: as §1, §4

[3] = MH broth + porcine stomach (type II) mucin 0.2% w/v
[4] = MH broth + porcine stomach (type II) mucin 2% w/v
[5] = AS (artificial sputum) medium, resazurin read-out
[6] = MH broth (Table S7 comparison with AS medium)

SMILES: CC[C@H](C)CCCCC(=O)N[C@@H](CCN)C(=O)N[C@H](C(=O)N[C@@H](CCN)C(=O)N[C@H]1CCNC(=O)[C@H]([C@@H](C)O)NC(=O)[C@H](CCN)NC(=O)[C@H](CCN)NC(=O)[C@H](CC(C)C)NC(=O)[C@@H](Cc2ccccc2)NC(=O)[C@H](CCN)NC1=O)[C@@H](C)O [Polymyxin B, polymyxin B] (X1-[Dab]T[Dab][Dab][Dab][dF]L[Dab][Dab]T; lactam 4-C (inferred); N-terminus assumed)
- MIC (A. baumannii MDR ACB; [3]): 1 μg/mL Drug Base
- MIC (A. baumannii MDR ACB; [4]): 16 μg/mL Drug Base
- MIC (A. baumannii MDR ACB; MH broth, mucin 0%): 0.125 μg/mL Drug Base
- Selectivity index (SI) value (A. baumannii MDR ACB; SI = IC50 (µg/mL, HK-2)/MIC (µg/mL), A. baumannii MDR ACB): 88
- MIC (P. aeruginosa MDR 301; [5]): 4 μg/mL Drug Base
- MIC (P. aeruginosa MDR 301; [6]): 0.5 μg/mL Drug Base
- Selectivity index (SI) value (P. aeruginosa MDR 301; SI = IC50 (µg/mL, HK-2)/MIC (µg/mL), P. aeruginosa MDR 301): 22
- Selectivity index (SI) value (E. coli PN21): 3
- MIC (E. coli IR57; [5]): 0.125 μg/mL Drug Base
- MIC (E. coli IR57; [6]): 0.5 μg/mL Drug Base
- MIC (E. coli IR57; MH broth + porcine stomach (type II) mucin 0.2% w/v, resazurin read-out): 1 μg/mL Drug Base
- MIC (E. coli IR57; MH broth + porcine stomach (type II) mucin 2% w/v, resazurin read-out): 4 μg/mL Drug Base
- MIC (E. coli IR57; MH broth, mucin 0%, resazurin read-out): 0.5 μg/mL Drug Base
- MIC (K. pneumoniae KP05 506; [5]): 1 μg/mL Drug Base
- MIC (K. pneumoniae KP05 506; [6]): 0.125 μg/mL Drug Base
- Selectivity index (SI) value (K. pneumoniae KP05 506; SI = IC50 (µg/mL, HK-2)/MIC (µg/mL), K. pneumoniae KP05 506): 88
- MIC (K. pneumoniae IR25; [3]): 4 μg/mL Drug Base
- MIC (K. pneumoniae IR25; [4]): 64 μg/mL Drug Base
- MIC (K. pneumoniae IR25; MH broth, mucin 0%): 0.125 μg/mL Drug Base
- Selectivity index (SI) value (K. pneumoniae IR25; SI = IC50 (µg/mL, HK-2)/MIC (µg/mL), K. pneumoniae IR25): 88
- Selectivity index (SI) value, Mean [1]: 66
- MIC (E. coli AIM-1): <0.004 μg/mL Drug Base
- MIC (P. aeruginosa R22; [3]): 4 μg/mL Drug Base
- MIC (P. aeruginosa R22; [4]): 64 μg/mL Drug Base
- MIC (P. aeruginosa R22; MH broth, mucin 0%): 0.25 μg/mL Drug Base
- Selectivity index (SI) value (P. aeruginosa R22; SI = IC50 (µg/mL, HK-2)/MIC (µg/mL), P. aeruginosa R22): 44
- Selectivity index (SI) value (E. coli NCTC 10418): 1
- Selectivity index (SI) value (P. aeruginosa NCTC 10662): 175
- increase in MIC values when mucin was added to the bacterial culture medium [2]: > 100 fold
- IC50 at 72 h (MTT cytotoxicity assay): 11 µg/mL
- MIC (P. aeruginosa NH57388A; [5]): 1 μg/mL Drug Base
- MIC (P. aeruginosa NH57388A; [6]): 0.25 μg/mL Drug Base
- Selectivity index (SI) value (P. aeruginosa NH57388A; SI = IC50 (µg/mL, HK-2)/MIC (µg/mL), P. aeruginosa NH57388A): 44
- MIC (A. baumannii 7789; [5]): 0.5 μg/mL Drug Base
- MIC (A. baumannii 7789; [6]): 0.125 μg/mL Drug Base
- Selectivity index (SI) value (A. baumannii 7789; SI = IC50 (µg/mL, HK-2)/MIC (µg/mL), A. baumannii 7789): 88
- MIC (E. coli 5702; [5]): 0.25 μg/mL Drug Base
- MIC (E. coli 5702; [6]): 0.063 μg/mL Drug Base
